Measurements reported in patent US20140220135A1, “PERMEATION ENHANCED ACTIVE-CARRYING NANOPARTICLES” (Midatech Limited, priority 2013, published 2014).
Entries after “also recorded” stand apart in the source; their conditions may differ.

Legend:
[1] = Glucose clearance in somatostatin-infused minipigs after glucose bolus; type: in vivo; details: transbuccal strips of NP-insulin, μg DoD/strip, period of 40 to 60 minutes, FIG. 8
Procedure: Minipigs were infused with somatostatin in order to suppress endogenous insulin secretion. They were then given a bolus injection of 0.33 gm/kg glucose. After thirty minutes the test item was given and the first order rate constant for glucose clearance (k) was calculated for the period of 40 to 60 minutes.
Test items included: 1. Strips containing 4 U insulin on nanoparticle applied transbuccal; 2. Strips containing 4 U insulin on nanoparticle dodecyl-β-D-maltoside applied transbuccal; 3. Subcutaneous (s.c.) nanoparticle-insulin (NP-insulin); 4. S.C. commercial Humalog® insulin.

[2] = system: insulin-carrying gold nanoparticles ("GNPI"); assay: Insulin release from insulin-carrying gold nanoparticles incubated with permeation enhancer, BCA protein assay of supernatant; type: physicochemical
Procedure: […] Samples were mixed and left at RT for 1 h, they were then spun for 2 min at 18000 g and 10 μl of each supernatant was measured by BCA protein assay to determine insulin release, a blank and a positive control in which no TDM was added and the sample was not spun were also included.
The sample tubes were vortexed and left at RT for a further 95 h (for a total of 96 hours) and re-assayed as above to see if there was any further indication of insulin release.
In a follow on experiment lysalbinic acid (LAA) was also tested as an alternative potential permeation enhancer, the same protocol was used as for TDM above.

Compound | first order rate constant for glucose clearance (k) against dosage of DoD [1] | insulin release by TDM over 0 TDM control ([2]; 1 h at RT in water, 2.5-67.5 μg TDM in 0.5 ml, FIG. 2) | further insulin release after a total of 96 hours ([2]; 96 h at RT in water, FIG. 3) | loss of bound active from active-carrying nanoparticle ([2]; 96 hours of incubation in solution) | percentage of insulin released against percentage of permeation enhancer ([2]; insulin level of 75 U/ml, FIG. 5 and FIG. 6) | effect on insulin release from GNPI (overall conclusion) ([2]; range of concentrations, in water, short or medium term)
CCCCCCCCCCCCO[C@@H]1O[C@H](CO)[C@@H](O[C@H]2O[C@H](CO)[C@@H](O)[C@H](O)[C@H]2O)[C@H](O)[C@H]1O [DoD, dodecyl-β-D-maltoside] | apparent dose-dependence; also recorded: clear dose-dependence | – | – | – | – | –
CCCCCCCCCCCCCCO[C@@H]1O[C@H](CO)[C@@H](O[C@H]2O[C@H](CO)[C@@H](O)[C@H](O)[C@H]2O)[C@H](O)[C@H]1O [TDM, tetradecyl-D-maltoside] | – | less than 5% | no further release | without significant loss of bound active | lack of effect | no gross effect
